Reference: US10519193B2, “Steroidal compound, composition containing the same and use thereof” (Shenzhen TargetRx, Inc., priority 2016, dated 2019)

What was measured:
[1] = Metabolic stability evaluation in human liver microsomes; format: in vitro ADME; details: for half-life of the deuterated prodrug: metabolized abiraterone of the prodrug, liver microsomes, versus abiraterone acetate; for half-life of the deuterated prodrug / clearance compared to the non-deuterated compound / half-life compared to the non-deuterated compound: in words; for half-life at 1 μM / microsomal CLint at 1 μM: human liver microsomes, pH 7.4, 1 μM compound, 0.5 mg/mL protein; for half-life at 1 μM / microsomal CLint at 1 μM / clearance compared to the non-deuterated compound / half-life compared to the non-deuterated compound: human liver microsome
Experimental: Experiments in microsomes: Human liver microsomes: 0.5 mg/mL, Xenotech; Coenzyme (NADPH/NADH): 1 mM, Sigma Life Science; Magnesium chloride: 5 mM, 100 mM phosphate buffer (pH 7.4).
Preparation of stock solution: Powder of the example compound was accurately weighed and dissolved in DMSO to 5 mM.
Preparation of phosphate buffer (100 mM, pH7.4): A pre-formulated 0.5M potassium dihydrogen phosphate (150 mL) was mixed with 0.5M dibasic potassium phosphate (700 mL). The pH of the mixture was adjusted to 7.4 with 0.5M dibasic potassium phosphate solution. The mixture was diluted 5-fold with ultrapure water before use, and magnesium chloride was added to obtain a phosphate buffer (100 mM) containing 100 mM potassium phosphate, 3.3 mM magnesium chloride, pH 7.4.
A NADPH regeneration system solution (containing 6.5 mM NADP, 16.5 mM G-6-P, 3 U/mL G-6-P D, 3.3 mM magnesium chloride) was prepared and placed on wet ice prior to use.
Preparation of stop solution: acetonitrile solution containing 50 ng/mL propranolol hydrochloride and 200 ng/mL tolbutamide (internal standard). 25057.5 μL of phosphate buffer (pH 7.4) was taken into a 50 mL centrifuge tube, to which 812.5 μL human liver microsomes were added, and mixed to obtain a liver microsome dilution solution with a protein concentration of 0.625 mg/mL. 25057.5 μL of phosphate buffer (pH 7.4) was taken into a 50 mL centrifuge tube, to which 812.5 μL SD rat liver microsomes were added, and mixed to obtain a liver microsome dilution solution with a protein concentration of 0.625 mg/mL.
Incubation of the samples: The stock solution of the respective compound was respectively diluted to 0.25 mM with an aqueous solution containing 70% acetonitrile, and used as a working solution, ready for use. 398 μL of the dilution solution of human liver microsomes or rat liver microsome were added to a 96-well incubation plate (N=2), respectively, and 2 μL of 0.25 mM working solution was added and mixed.
Metabolic stability assay: 300 μL of pre-chilled stop solution was added to each well of a 96-well deep well plate and placed on ice as a stop plate. The 96 well incubation plate and NADPH regeneration system were placed in a 37° C. water bath box, shaken at 100 rpm and pre-incubated for 5 min. 80 μL of incubation solution was taken out from each well of the incubation plate and added to the stop plate, mixed, and replenished with 20 μL of NADPH regeneration system solution as a 0-min sample. 80 μL of NADPH regeneration system solution was added to each well of the incubation plate to start the reaction and start counting. […] Separately, 100 μL of the reaction solution was taken at 10, 30, and 90 min reaction, respectively, added to a stop plate, and vortexed for 3 minutes to terminate the reaction. The stop plate was centrifuged at 5000×g at 4° C. for 4 min. 100 μL of the supernatant was added to a 96-well plate to which 100 μL of distilled water was previously added, mixed, and analyzed by LC-MS/MS.
Data analysis: The peak areas of the corresponding compound and internal standard were detected by LC-MS/MS system, and the ratio of the peak area of the compound to the internal standard was calculated.

[2] = Pharmacokinetic evaluation in rats; format: in vivo; details: male, Sprague-Dawley, plasma, 5 mg/kg; rat, PO
Experimental: 8 male Sprague-Dawley rats (7-8 weeks old, and weighing approximately 210 g) were divided into two groups with 4 rats in each group, a single oral dose of 5 mg/kg given to the two groups were (a) control group: (3β)-17-(3)-pyridyl)androst-5,16-dienol and (b) test group: Examples 1-13, and pharmacokinetic differences between the two groups were compared.
The rats were raised on standard food and water. Fasting was started 16 hours before the test. The drug was dissolved with PEG400 and dimethyl sulfoxide. The blood samples were collected from eyelids at the time points of 0.083 hours, 0.25 hours, 0.5 hours, […], 2 hours, 4 hours, 6 hours, 8 hours, 12 hours, and 24 hours after administration.
Rats were briefly anesthetized after inhalation of diethyl ether and 300 μL of blood sample was collected from the eyelids into test tubes. There was 30 μL of 1% heparin salt solution in the test tube. Tubes were dried at 60° C. overnight before use. After the blood sample was collected at a later time point, the rats were sacrificed after ether anesthesia.
Immediately after the collection of the blood sample, the test tube was gently inverted at least 5 times to ensure sufficient mixing and then placed on ice. The blood sample was centrifuged at 5000 rpm at 4° C. for 5 minutes to separate the plasma from the red blood cells. 100 μL of plasma was aspirated into a clean plastic centrifuge tube with a pipette, marking with the name of the compound and time point. Plasma was stored at −80° C. prior to analysis. The concentration of the compound of the present disclosure in plasma was determined by LC-MS/MS. The pharmacokinetic parameters were calculated based on the blood concentration of each animal at different time points.

[3] = Pharmacokinetic evaluation in rats; format: in vivo; details: male, Sprague-Dawley, plasma; rat, IV
[4] = tested on: PSA protein secretion, LNcaP cells; assay: Inhibition of cellular PSA protein secretion; format: cell-based; details: Homo sapiens, 1 nM DHT, 48 hours, ELISA, read-out: Inhibition of PSA proteins, IC50
Experimental: Experimental steps: 1. The original culture medium was replaced with culture medium containing 10% Charcoal Stripped FBS, and cells were allowed to starve in culture flasks for 24 hours; 2. Cells were digested and counted, and LNcaP cells were seeded into 96-well plates at 10,000 cells/well and incubated overnight; 3. The DHT and compound were added to the existing medium at a set concentration, the final concentration of DHT was 1 nM, the initial concentration of the compound was 50000 nM, 5-fold dilution was carried out, 8 concentration gradients were obtained, and incubation was carried out for 48 hours; 4. Cell culture supernatants were collected and PSA protein levels were measured according to the ELISA kit instructions. IC50 was calculated using GraphPad Prism based on the inhibition rate at each concentration, and the results were shown in Table 2 below.

Human CYP17 [5] = molecular target: T1, Human CYP17 (Homo sapiens, UniProt P05093); assay: CYP17 lyase assay; format: biochemical; design: made in house; host or cells: HEK293 cells (microsomes)
T1 sequence (P05093 1-508): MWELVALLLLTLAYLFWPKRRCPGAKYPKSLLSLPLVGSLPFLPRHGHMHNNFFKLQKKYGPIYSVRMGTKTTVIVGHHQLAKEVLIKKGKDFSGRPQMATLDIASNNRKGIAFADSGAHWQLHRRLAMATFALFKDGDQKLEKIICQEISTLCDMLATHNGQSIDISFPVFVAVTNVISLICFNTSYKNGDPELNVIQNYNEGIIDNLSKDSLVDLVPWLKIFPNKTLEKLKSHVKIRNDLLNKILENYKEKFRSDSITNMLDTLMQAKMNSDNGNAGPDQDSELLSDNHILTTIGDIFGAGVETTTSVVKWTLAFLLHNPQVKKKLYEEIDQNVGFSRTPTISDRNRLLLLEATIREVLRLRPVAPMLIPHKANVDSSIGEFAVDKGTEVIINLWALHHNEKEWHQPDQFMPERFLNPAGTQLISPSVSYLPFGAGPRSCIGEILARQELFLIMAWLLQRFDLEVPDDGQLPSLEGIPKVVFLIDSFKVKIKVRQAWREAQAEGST
Experimental: Human CYP17 was expressed in HEK293 cells and microsome were prepared, which was subsequently used as a source of enzyme for lyase assays. The reaction includes 200 nM [3H]-hydroxy pregnenolone (ARC), 200 nM 17-hydroxy pregnenolone (Sigma), 2 mM NADPH (Calbiochem), and CYP 17-HEK293 microsomes, which were incubated for 20 minutes at room temperature in the presence of DMSO or a test compound. Compounds were dissolved in DMSO and serially diluted. The reaction was stopped by the addition of 0.2N HCl and the product was captured using an anti-mouse YSi SPA Bead (GE) conjugated anti-DHEA monoclonal antibody (Abcam). The signal intensity determined by Packard Top Count was used to calculate the percent inhibition and IC50 values.

Human CYP17 [6] = molecular target: T1, Human CYP17; assay: CYP17 hydroxylase assay; format: biochemical; design: made in house; host or cells: E. coli (membrane preparation)
Experimental: E. coli was transformed to express active human CYP17, and a membrane prepared from the transformed E. coli was used as a source of the enzyme. […] The reaction mixture was incubated at 37° C. for 120 minutes and 200 μL of 0.02 N HCl in acetonitrile was added to stop the reaction. The sample was then spun at […] and 200 μL of the supernatant was transferred to a clean tube for determination. The reaction product 17-alpha pregnenolone was measured by LC/MS.

[7] = tested on: castration-resistant prostate cancer; details: patients, cited from earlier work
[8] = CYP17-HEK293 microsomes, 20 minutes at room temperature, read-out: CYP17 lyase IC50
[9] = hCYP17 E. coli membrane, 25 μM pregnenolone, 37° C. 120 minutes, read-out: CYP17 hydroxylase IC50
[10] = abiraterone acetate plus prednisone

With `[2H]c1cncc(C2=CCC3C4CC=C5C[C@@H](OC(C)=O)CC[C@]5(C)C4CC[C@]23C)c1` (stereo partly drawn) [Example 3, (3β)-17-(3-pyridyl-5-d)androst-5,16-dienyl Acetate] the “half-life of the deuterated prodrug” value [1] was “significantly prolonged”.

Work on `[2H]C1=C(c2cccnc2)[C@@]2(C)CCC3C(CC=C4C[C@@H](OC(=O)C([2H])([2H])[2H])CC[C@@]43C)C2C1` (stereo partly drawn) [Example 9, (3β)-17-(3-pyridyl)androst-5,16-dienyl-16-d d3-acetate] yielded an AUC(0-inf) [2] of 2550 ng·h/mL, an AUC(0-t) [2] of 2480 ng·h/mL and a Cmax [2] of 549 ng/mL. The Tmax [2] was 1.67 h, the “half-life of the deuterated prodrug” value [1] was “significantly prolonged” and the Cmax [3] was 43.6 ng/mL. It also gave a Tmax [3] of 17.3 h.

With `[2H]c1cncc(C2=CCC3C4CCC5=CC(=O)CC[C@]5(C)C4CC[C@]23C)c1` (stereo partly drawn) [Example 11, (3β)-17-(3-pyridyl-5-d)androst-4,16-dien-3-one] the IC50 [4] was less than 10 nM, the IC50 (Human CYP17 [5]; [8]) was less than 10 nM and the IC50 (Human CYP17 [6]; [9]) was less than 20 nM.

`C[C@]12CC[C@H](O)CC1=CC[C@@H]1[C@@H]2CC[C@]2(C)C(c3cccnc3)=CC[C@@H]12` [Abiraterone, (3β)-17-(3-pyridinyl)androst-5,16-dienol, reference compound] gave a half-life at 1 μM [1] of 0.667 h, a microsomal CLint at 1 μM [1] of 34.7 µL/min/mg and an IC50 (Human CYP17 [5]; [8]) of less than 10 nM.

`CC(=O)O[C@H]1CC[C@@]2(C)C(=CC[C@@H]3[C@@H]2CC[C@]2(C)C(c4cccnc4)=CC[C@@H]32)C1` [Abiraterone acetate, reference compound] gave an AUC(0-inf) [2] of 1320 ng·h/mL, an AUC(0-t) [2] of 1290 ng·h/mL and a Cmax [2] of 506 ng/mL. The Tmax [2] was 1.33 h, the AUC(0-inf) [3] was 192 ng·h/mL and the AUC(0-t) [3] was 110 ng·h/mL. The Cmax [3] was 10.6 ng/mL, the Tmax [3] was 2 h and the “risk of death reduced” value ([7]; abiraterone acetate plus prednisone vs placebo plus prednisone) was 35%. For the same molecule, the Median survival [7, 10] was 14.8 months and the “Median survival longer than placebo plus prednisone” value [7, 10] was 3.9 months.

For `[2H]c1cncc(C2=CCC3C4CC=C5C[C@@H](O)CC[C@]5(C)C4CC[C@]23C)c1` (stereo partly drawn) [Example 2, (3β)-17-(3-pyridyl-5-d)androst-5,16-dienol], the “clearance compared to the non-deuterated compound” value [1] was “reduced”, the “half-life compared to the non-deuterated compound” value [1] was “prolonged” and the half-life at 1 μM [1] was 1.19 h. The microsomal CLint at 1 μM [1] was 19.5 µL/min/mg, the IC50 (Human CYP17 [5]; [8]) was less than 10 nM and the IC50 (Human CYP17 [6]; [9]) was less than 20 nM.

In the case of `[2H]c1ccc(C2=CCC3C4CC=C5C[C@@H](O)CC[C@]5(C)C4CC[C@]23C)cn1` (stereo partly drawn) [Example 1, (3β)-17-(3-pyridyl-6-d)androst-5,16-dienol], the “clearance compared to the non-deuterated compound” value [1] is reported as “reduced”, the “half-life compared to the non-deuterated compound” value [1] is reported as “prolonged” and the half-life at 1 μM [1] is reported as greater than 2.42 h. For the same molecule, the microsomal CLint at 1 μM [1] was less than 9.6 µL/min/mg, the IC50 (Human CYP17 [5]; [8]) was less than 10 nM and the IC50 (Human CYP17 [6]; [9]) was less than 20 nM.

`[2H]c1ccc(C2=CCC3C4CC=C5C[C@@H](OC(C)=O)CC[C@]5(C)C4CC[C@]23C)cn1` (stereo partly drawn) [Example 5, (3β)-17-(3-pyridyl-6-d)androst-5,16-dienyl Acetate] showed an AUC(0-inf) [2] of 2440 ng·h/mL, an AUC(0-t) [2] of 2420 ng·h/mL and a Cmax [2] of 813 ng/mL. The Tmax [2] was 1.67 h, the AUC(0-inf) [3] was 274 ng·h/mL and the AUC(0-t) [3] was 224 ng·h/mL. For the same molecule, the Cmax [3] was 24.1 ng/mL and the Tmax [3] was 3 h.

For `[2H]C([2H])([2H])C(=O)O[C@H]1CC[C@@]2(C)C(=CCC3C2CC[C@]2(C)C(c4cccnc4)=CCC32)C1` (stereo partly drawn) [Example 4, (3β)-17-(3-pyridyl)androst-5,16-dienyl d3-acetate], the “half-life of the deuterated prodrug” value [1] was “significantly prolonged”.

For `[2H]c1cncc(C2=CCC3C4CC=C5C[C@@H](OC(=O)C([2H])([2H])[2H])CC[C@]5(C)C4CC[C@]23C)c1` (stereo partly drawn) [Example 7, (3β)-17-(3-pyridyl-5-d)androst-5,16-dienyl d3-acetate], the “half-life of the deuterated prodrug” value [1] was “significantly prolonged”.

In the case of `[2H]C1=C(c2cccnc2)[C@@]2(C)CCC3C(CC=C4C[C@@H](O)CC[C@@]43C)C2C1` (stereo partly drawn) [Example 8, (3β)-17-(3-pyridyl)androst-5,16-dienol-16-d], the “clearance compared to the non-deuterated compound” value [1] is reported as “reduced”, the “half-life compared to the non-deuterated compound” value [1] is reported as “prolonged” and the half-life at 1 μM [1] is reported as 0.855 h. The microsomal CLint at 1 μM [1] was 24.3 µL/min/mg, the IC50 (Human CYP17 [5]) was less than 10 nM and the IC50 (Human CYP17 [6]) was less than 20 nM.
